Calls of active or inactive are those of the source.
Legend:
HeLa = assay: ATP-based viability loss in HeLa cells – cell-based, CellTiter-Glo luminescence, cherry-pick samples, cytotoxicity control for MITF activator project, dose response (AID 540259); assay type: functional; conditions: Homo sapiens
[1] = target: UDP-galactopyranose mutase (Mycobacterium tuberculosis, UniProt P9WIQ1); assay: Inhibitors of Mycobacterium tuberculosis UDP-galactopyranose mutase (UGM) enzyme Measured in Biochemical System Using Plate Reader - 2105-02_Inhibitor_Dose_CherryPick_Activity. [Related pubchem assays (depositor defined):AID504439]
[2] = target: T1, Corticotropin-releasing factor receptor 2/Corticotropin-releasing factor-binding protein (Homo sapiens, UniProt P24387+Q13324); assay: activators of CRF receptor 2 with binding protein – uHTS hits, confirmation (AID 602473); assay type: functional; conditions: read-out: EC50_Mean
T1 sequence (Q13324 whole entry): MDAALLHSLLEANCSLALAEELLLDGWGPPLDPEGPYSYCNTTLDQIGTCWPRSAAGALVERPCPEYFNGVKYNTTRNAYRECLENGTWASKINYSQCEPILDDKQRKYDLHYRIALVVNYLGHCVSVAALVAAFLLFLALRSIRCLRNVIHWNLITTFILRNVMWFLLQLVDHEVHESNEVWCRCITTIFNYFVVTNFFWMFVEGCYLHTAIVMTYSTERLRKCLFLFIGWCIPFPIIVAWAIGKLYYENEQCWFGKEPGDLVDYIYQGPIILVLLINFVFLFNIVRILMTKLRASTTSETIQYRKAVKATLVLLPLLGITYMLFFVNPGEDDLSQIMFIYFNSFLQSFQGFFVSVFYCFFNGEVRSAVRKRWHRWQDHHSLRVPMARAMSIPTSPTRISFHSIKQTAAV
T1 sequence (P24387 whole entry): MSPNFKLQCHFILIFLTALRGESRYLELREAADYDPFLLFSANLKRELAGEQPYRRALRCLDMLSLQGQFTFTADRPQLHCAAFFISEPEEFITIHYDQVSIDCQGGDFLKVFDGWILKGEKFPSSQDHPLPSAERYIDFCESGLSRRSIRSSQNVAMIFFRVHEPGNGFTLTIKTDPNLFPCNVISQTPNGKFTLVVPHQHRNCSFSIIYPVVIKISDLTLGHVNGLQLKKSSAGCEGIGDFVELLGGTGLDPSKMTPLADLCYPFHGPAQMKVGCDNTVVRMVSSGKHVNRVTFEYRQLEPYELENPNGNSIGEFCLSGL

[3] = target: Glucose-6-phosphate 1-dehydrogenase (Homo sapiens, UniProt P11413); assay: inhibition of Homo sapiens G6PD, dose series – biochemical, fluorescence, selectivity assay for P. falciparum G6PD inhibitor project, dose response (AID 504792); assay type: functional
Escherichia coli = assay: microbe, parasite or virus in culture

Chain of Glucose-6-phosphate 1-dehydrogenase (P11413 whole entry): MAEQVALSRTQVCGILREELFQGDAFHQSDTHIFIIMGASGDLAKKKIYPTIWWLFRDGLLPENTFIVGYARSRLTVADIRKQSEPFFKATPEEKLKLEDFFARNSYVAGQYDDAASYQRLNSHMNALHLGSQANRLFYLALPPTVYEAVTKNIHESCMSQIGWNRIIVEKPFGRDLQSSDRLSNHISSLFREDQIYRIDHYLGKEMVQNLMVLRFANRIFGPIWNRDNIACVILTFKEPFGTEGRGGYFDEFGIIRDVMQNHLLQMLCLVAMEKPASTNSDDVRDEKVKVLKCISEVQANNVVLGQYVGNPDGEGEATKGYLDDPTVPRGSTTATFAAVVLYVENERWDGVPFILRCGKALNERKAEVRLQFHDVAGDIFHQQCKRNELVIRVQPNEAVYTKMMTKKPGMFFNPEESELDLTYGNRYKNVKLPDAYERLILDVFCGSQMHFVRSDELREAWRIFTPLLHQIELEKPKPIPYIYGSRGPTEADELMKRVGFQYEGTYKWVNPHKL
Chain of UDP-galactopyranose mutase (P9WIQ1 whole entry): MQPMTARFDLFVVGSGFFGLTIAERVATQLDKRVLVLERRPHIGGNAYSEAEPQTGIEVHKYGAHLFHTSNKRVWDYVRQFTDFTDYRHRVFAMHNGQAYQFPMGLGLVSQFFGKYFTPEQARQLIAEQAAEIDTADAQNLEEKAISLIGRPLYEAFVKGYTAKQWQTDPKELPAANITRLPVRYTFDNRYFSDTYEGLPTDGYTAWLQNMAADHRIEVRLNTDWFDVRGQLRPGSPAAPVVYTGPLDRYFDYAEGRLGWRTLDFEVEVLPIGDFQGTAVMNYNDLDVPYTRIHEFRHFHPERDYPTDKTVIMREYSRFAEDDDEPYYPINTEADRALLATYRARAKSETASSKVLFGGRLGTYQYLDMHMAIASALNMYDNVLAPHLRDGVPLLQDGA

COc1ccc(OCc2cc(C(=O)NC(C)c3cnn(C)c3)no2)c(Cl)c1 (stereo unspecified)
AC50 (HeLa): 79.6 µM (active)

N#C/C(=C\C=C\c1ccccc1)c1nc(-c2ccc3c(c2)OCO3)cs1
AC50 [1]: 38.5 µM (active)
EC50 [2]: 9.03 µM (active)

COc1cc(-c2nnc3n2N=C(c2ccccc2)CS3)cc(OC)c1OC
IC50 [3]: > 80 µM (inactive)

O=C(c1cnn2ccccc12)N1CCc2ccccc21
AC50 (HeLa): 58.6 µM (active)

COc1ccccc1NC(=S)NC(=O)C(C)C
AC50 (Escherichia coli): 50.3 µM (active)

— ChEMBL document CHEMBL1201862, “PubChem BioAssay data set” (2004)
